Experimental data from PMC4405350, “From Broad-Spectrum Biocides to Quorum Sensing Disruptors and Mussel Repellents: Antifouling Profile of Alkyl Triphenylphosphonium Salts” (PLoS ONE, 2015).

Key:
Fusarium sp. = assay: Marine-derived fungi growth inhibition (OD405); assay type: cell-based; details: Fusarium, 120 h, 5 days, 26 °C
Description: All the biological assays were run by triplicate.
Three strains of marine-derived fungi were kindly provided by Dr. Á. Trigos (University of Veracruz, Mexico). The strains were isolated from reef organisms collected from the Veracruz Reef System and identified as Aspergillus sp., Fusarium sp. and Alternaria sp..
Fungal strains were cultured in Potato-Dextrose Agar (PDA) supplemented with filtered seawater (FSW) (50% v/v) at 26 °C for 5 days prior to experiments. […] Briefly, fungal inocula were prepared by addition of 5 ml of sterile saline solution to the cultures. Gently swabbing released conidia. […] The plates were incubated for 5 days at 26 °C. The calculation of the half-maximal inhibitory concentrations (IC50) was performed using OD405 as endpoint.

Nitzschia sp. = assay: Benthic diatom growth inhibition (chlorophyll-a); assay type: cell-based; details: 120 h; growth, 5 days, chlorophyll-a; read-out: IC50 Nitzschia sp.
Description: (§1) All the biological assays were run by triplicate. […] For the active products, serial dilutions were performed to calculate the half-maximal inhibitory concentrations (IC50) or the minimal inhibitory concentrations (MIC). Unless otherwise stated, the test concentrations were 100, 50, 25, 10, 5, 2.5, 1, 0.5 and 0.1 μM. Dose-response curves were adjusted with GraphPad Prism 5 software using a four-parameter non-linear regression model.
(§2) Five strains of benthic diatoms, Nitszchia sp. […] The Nitzschia and Navicula strains were purchased from the Spanish Bank of Algae (Marine Biotechnology Center, University of Las Palmas de Gran Canaria). The other three strains were kindly provided by Dr. G. Courtois (University of Las Palmas de Gran Canaria). Diatoms were cultured at 19±1 °C in Erlenmeyer flaks (250 ml) containing 150 ml of Guillard’s F/2 medium, and subjected to a photoperiod of 18:6. Tests were run in 48-well plates. Inocula were prepared by adjusting diatom concentration to 2–4 × 10^6 cells ml^-1 using a Neubauer chamber. Test products were dissolved in F/2 medium (500 μl) to which diatom inocula (500 μl) were added. Thus, the final assay volume was 1 ml and the starting cell densities were ca. 1–2 x 10^6 diatoms ml^-1. Plates were incubated under the abovementioned conditions for 5 days and then chlorophyll-a (Chla) was quantified.
(§3) In order to extract Chla, the content of each well was transferred to a microcentrifuge tube and centrifuged at 10,000 rpm for 10 min. The supernatants were discarded and 200 μl of DMSO were added to the pellets. The tubes were incubated at 65 °C for 2 h in total darkness and vortexed every 30 min. Then, the content of each tube was transferred to a 96-well plate and the amount of Chla was determined spectrophotometrically. Path length correction factor for the DMSO extracts was determined.

[1] = tested on: Phaeodactylum tricornutum; assay: Benthic diatom growth inhibition (chlorophyll-a); assay type: cell-based; details: Phaeodactylum tricornutum, 120 h; growth, 5 days, chlorophyll-a; read-out: IC50 P. tricornutum
Description: as §1, §2, §3

[2] = tested on: Navicula cf. salinicola BEA 0055; assay: Benthic diatom growth inhibition (chlorophyll-a); assay type: cell-based; details: 120 h; growth, 5 days, chlorophyll-a; read-out: IC50 Navicula cf. salinicola
Description: as §1, §2, §3

Cylindrotheca sp. = assay: Benthic diatom growth inhibition (chlorophyll-a); assay type: cell-based; details: 120 h; growth, 5 days, chlorophyll-a; read-out: IC50 Cylindrotheca sp.
Description: as §1, §2, §3

Amphora sp. = assay: Benthic diatom growth inhibition (chlorophyll-a); assay type: cell-based; details: 120 h; growth, 5 days, chlorophyll-a; read-out: IC50 Amphora sp.
Description: as §1, §2, §3

Artemia salina nauplii = assay: in vivo; details: instar I nauplii, 24 h, 28 °C
Description: as §1
Artemia salina cysts (INVE Aquaculture, Ghent, Belgium) were hatched in brackish water (30 ‰ salinity) at 28 °C with aeration and under constant light. Newly hatched instar I nauplii were harvested for bioassays. Tests were conducted in 96-well plates (15±5 nauplii per well, test volume = 200 μl). The number of dead and alive individuals was recorded after 24 h of incubation at 28 °C and 24-hour photoperiod.

[3] = tested on: Gayralia oxysperma spores; assay: Macroalgal spore germination inhibition; assay type: cell-based; details: 6 days, 19±1 °C
Description: as §1
To evaluate the effect of the phosphonium salts on the germination of macroalgal spores, Gayralia oxysperma (Kützing) K.L.Vinogradova was selected as model organism. G. oxysperma (Ulotrichales, Chlorophyta) is a cosmopolitan member of the Ulvophyceae. Unlike Ulva species, which produce biflagellate male and female gametes, as well as quadriflagellate spores, G. oxysperma only produces biflagellate spores. This is an advantage as bioassays can be conducted straightforwardly without the need to distinguish between gamete-producing and zoospore-producing plants. […] Fresh fertile fragments were selected and placed in Petri dishes. Spores were then released in Von Stosch Solution (VSS) by the osmotic method. Bioassays were conducted in flat-bottom 96-well plates as described by Chambers and co-workers, with slight modifications. Each well was filled with 50 μl of the appropriate dilution of the products in VSS to which 50 μl of spore inoculum (ca. 2 x 10^5 spores ml^-1) were added. Plates were incubated at 19±1 °C for 6 days. After the incubation time, the bottom of each well was examined for the presence of germinated spores with an inverted microscope. A spore was considered as germinated when the germ tube was visible. The MIC was recorded as the lowest concentration inhibiting spore germination.

[4] = tested on: Pseudoalteromonas atlantica CECT 579; assay: Marine bacteria growth inhibition (broth microdilution, OD625); assay type: cell-based; details: Pseudoalteromonas atlantica, CECT579; growth inhibition, 24 h, 30 °C, three replicates; read-out: IC50 P. atlantica
Description: as §1
(§4) Growth inhibition was assessed in Marine Broth (Conda) according to CLSI guidelines for broth microdilution susceptibility testing. The incubation time was 24 h and the incubation temperature was 30 °C.

[5] = tested on: Vibrio alginolyticus CECT 521; assay: as above; assay type: cell-based; details: Vibrio alginolyticus, CECT521; growth inhibition, 24 h, 30 °C, three replicates; read-out: IC50 V. alginolyticus
Description: as §1, §4

Cobetia marina CECT 4278 = assay: as above; assay type: cell-based; details: Cobetia marina, CECT4278; growth inhibition, 24 h, 30 °C, three replicates; read-out: IC50 C. marina
Description: as §1, §4

[6] = tested on: Vibrio anguillarum CECT 4347; assay: as above; assay type: cell-based; details: Vibrio anguillarum, CECT4347; growth inhibition, 24 h, 30 °C, three replicates; read-out: IC50 V. anguillarum
Description: as §1, §4

[7] = tested on: Cellulophaga lytica CECT 5014; assay: as above; assay type: cell-based; details: Cellulophaga lytica, CECT5014; growth inhibition, 24 h, 30 °C, three replicates; read-out: IC50 C. lytica
Description: as §1, §4

[8] = tested on: Shewanella algae CECT 5021; assay: as above; assay type: cell-based; details: Shewanella algae, CECT5021; growth inhibition, 24 h, 30 °C, three replicates; read-out: IC50 S. algae
Description: as §1, §4

Row | Structure (SMILES) | IC50 (Fusarium sp.) [µM] | IC50 (Nitzschia sp.) [µM] | IC50 [1] [µM] | IC50 [2] [µM] | IC50 (Cylindrotheca sp.) [µM] | IC50 (Amphora sp.) [µM] | IC50 A. salina (LC50) (Artemia salina nauplii) [µM] | MIC G. oxysperma (lowest concentration inhibiting spore germination) [3] [µM] | IC50 [4] [µM] | IC50 [5] [µM] | IC50 (Cobetia marina CECT 4278) [µM] | IC50 [6] [µM] | IC50 [7] [µM] | IC50 [8] [µM]
1 | BrC(Br)[P+](c1ccccc1)(c1ccccc1)c1ccccc1 [Compound 1] | > 100 | 18.7 | 16.8 | 10.6 | 9.8 | 19.5 | >100 | 100 | > 100 | > 100 | > 100 | > 100 | > 100 | > 100
2 | COC(=O)CCC[P+](c1ccccc1)(c1ccccc1)c1ccccc1 [Compound 2] | > 100 | 40.2 | > 100 | 50.2 | 23.7 | 43.4 | >100 | >100 | > 100 | > 100 | > 100 | > 100 | > 100 | > 100
3 | C/C=C/C[P+](c1ccccc1)(c1ccccc1)c1ccccc1 [Compound 3] | > 100 | > 100 | > 100 | 62.2 | > 100 | > 100 | >100 | >100 | 9.5 | > 100 | > 100 | > 100 | 73.2 | > 100
4 | BrCCCC[P+](c1ccccc1)(c1ccccc1)c1ccccc1 [Compound 4] | > 100 | > 100 | > 100 | > 100 | > 100 | > 100 | 92.7 | >100 | 26.4 | > 100 | > 100 | > 100 | > 100 | > 100
5 | CCCCN[P+](c1ccccc1)(c1ccccc1)c1ccccc1 [Compound 5] | > 100 | 11.9 | 81.5 | 8.2 | 12.6 | 42.5 | 17.2 | 100 | > 100 | > 100 | > 100 | > 100 | 41.8 | > 100
6 | O=S(=O)([O-])CCCC[P+](c1ccccc1)(c1ccccc1)c1ccccc1 [Compound 6] | > 100 | > 100 | > 100 | > 100 | 21.3 | > 100 | >100 | >100 | > 100 | > 100 | > 100 | > 100 | > 100 | > 100
7 | CCCCC[P+](c1ccccc1)(c1ccccc1)c1ccccc1 [Compound 7] | > 100 | > 100 | > 100 | > 100 | > 100 | > 100 | >100 | >100 | > 100 | > 100 | > 100 | > 100 | > 100 | > 100
8 | CCCCCCC[P+](c1ccccc1)(c1ccccc1)c1ccccc1 [Compound 8, heptyl triphenylphosphonium bromide] | > 100 | 20.8 | 92.2 | 6.4 | 10.6 | 37.6 | 20.4 | 100 | 28.6 | > 100 | > 100 | > 100 | 20 | > 100
9 | CCCCCCCCC[P+](c1ccccc1)(c1ccccc1)c1ccccc1 [Compound 9] | 31.4 | 3.6 | 11.2 | 2.7 | 1.9 | 6.2 | 2.0 | 50 | 6.6 | 69.7 | 21 | 87 | 2.6 | 8.6
10 | CCCCCCCCCC[P+](c1ccccc1)(c1ccccc1)c1ccccc1 [Compound 10] | 21 | 2.5 | 1.9 | 2.3 | 1 | 3.2 | 1.4 | 50 | 5.2 | 35.5 | 8 | 18.3 | 2.6 | 10.4
11 | CCCCCCCCCCC[P+](c1ccccc1)(c1ccccc1)c1ccccc1 [Compound 11] | 5.3 | 2.3 | 1.7 | 1.5 | 1 | 3.3 | 1.8 | 50 | 3 | 32.9 | 6.1 | 17 | 1.1 | 5.4
12 | O=C(O)CCCCCCCCCC[P+](c1ccccc1)(c1ccccc1)c1ccccc1 [Compound 19] | > 100 | > 100 | > 100 | > 100 | 24.1 | 75.5 | – | >100 | > 100 | > 100 | > 100 | > 100 | > 100 | > 100
